Experimental findings from patent US20250109444A1, “DNA HYPOMETHYLATION AS A PREDICTIVE MARKER FOR CANCER THERAPY” (Fred Hutchison Cancer Center, priority 2023, published 2025) are described below.

Common to all, as to assay type: cell-based
The subject of experiment [1] is MALME3 cells. In words: Co-treatment with EED inhibitor and ipatasertib. The source says: (§1) FIGS. 5A-5C. […] Increased dependency on PRC2-mediated chromatin repression is observed with AKT inhibition, creating a therapeutic vulnerability. Co-treatment with AKTi and PRC2 inhibitors (such as EZH2 or EED inhibitors) results in synergistic effects.
Experiment [2] has as its system DHMC and non-DHMC cell lines. In words: Cell viability of DHMC and non-DHMC cancer cell lines treated with AKT inhibitors. The following applies: DHMC vs non-DHMC cell lines, wide spectrum of cancer cell lines, in vitro. The source says: FIGS. 2A, 2B. […] (2A) Cell viability curves for DHMC (black) and non-DHMC (light gray) cell lines treated with 3 different AKT inhibitors (afuresertib, AZD5363, ipatasertib). (2B) IC50s for DHMCs (black) and non-DHMCs (gray).

Experiment [3] relates to LNCaP cells. In words: Co-treatment with EZH2 inhibitor and ipatasertib, cell viability. The following applies: co-treatment with AKT inhibitor ipatasertib.
Text: as §1

Experiment [4] is described as follows: Sensitization to AKT inhibitors by pharmacologically induced DNA hypomethylation (DNMT inhibitors). The following applies: pharmacologically induced DNA hypomethylation with DNMT inhibitor. The source says:
(§2) FIGS. 4A, 4B. Modulation of global DNA methylation changes the sensitivity to AKT inhibitors. (4A) Cell viability curves for solvent (circle) and SAMe (square) treated LNCaP cells. The difference in cell viability in response to AKTi (ipatasertib) treatment is shown. (4B) Decitabine (DAC) and GSK344862 results in sensitization.

Experiment [5] relates to LNCaP cells. The experiment can be described thus: Cell viability of solvent vs SAMe treated LNCaP cells in response to AKTi (ipatasertib). The following applies: prolonged treatment with methyl donor SAMe vs solvent.
Text: as §2

For experiment [6], the system named is DHMC and non-DHMC cell lines. In words: Cell viability of DHMC and non-DHMC cancer cell lines treated with histone evicting anthracyclines. The following applies: DHMC vs non-DHMC cell lines, wide spectrum of cancer cell lines.

Turning to `CN(C)[C@H]1CN(C2CCc3cccc(F)c32)C[C@@H]1c1ccc(N2CCN(S(C)(=O)=O)CC2)cc1` (stereo partly drawn) [A395], the Interaction with ipatasertib result in experiment [1] is given as “Synergistic interaction”.
Turning to `NC1(C(=O)N[C@@H](CCO)c2ccc(Cl)cc2)CCN(c2nc[nH]c3nccc2-3)CC1` [AZD5363, Capivasertib], in experiment [2], the “Sensitivity of DHMC compared to non-DHMC (cell viability curves, IC50s)” value (“Sensitivity of DHMC compared to non-DHMC” below) is reported as “increased sensitivity”.
In the case of `CC[C@H](C)n1cc(C)c2c(C(=O)NCc3c(C)cc(C)[nH]c3=O)cc(-c3ccc(N4CCNCC4)nc3)cc21` [GSK126], the “Interaction with ipatasertib (cell viability)” value in experiment [3] is reported as “synergistic reduction in cell viability”.
Take `CCc1c(C#N)c(SC(C(N)=O)c2ccccc2)nc(N(C)C)c1C#N` (stereo not drawn) [GSK-3484862]: the “Change of sensitivity to AKT inhibitors (AKTi)” value in experiment [4] is on record as “increases sensitivity to AKT inhibitors”.
Consider `C[S+](CC[C@H](N)C(=O)O)C[C@H]1O[C@@H](n2cnc3c(N)ncnc32)[C@H](O)[C@@H]1O` (stereo partly drawn) [SAMe, S-Adenosylmethionine], for which the “Change of sensitivity to AKTi (cell viability)” value in experiment [5] is recorded as “decreases sensitivity to AKTi”.
Regarding `CC[C@@]1(O)C[C@H](O[C@H]2C[C@H](N(C)C)[C@H](O[C@H]3C[C@H](O)[C@H](O[C@H]4CCC(=O)[C@H](C)O4)[C@H](C)O3)[C@H](C)O2)c2c(cc3c(c2O)C(=O)c2c(O)cccc2C3=O)[C@H]1C(=O)OC` [aclarubicin], the “Sensitivity of DHMC compared to non-DHMC” value in experiment [6] was “increased sensitivity”.
On to `Cn1ncc(Cl)c1-c1cc(C(=O)N[C@H](CN)Cc2cccc(F)c2)sc1Cl` [afuresertib, Afuresertib], for which the “Sensitivity of DHMC compared to non-DHMC” value in experiment [2] is “increased sensitivity”.
The same measure, in the same setting: then `CC(C)NC[C@@H](C(=O)N1CCN(c2ncnc3c2[C@H](C)C[C@H]3O)CC1)c1ccc(Cl)cc1` [ipatasertib, Ipatasertib], with “increased sensitivity”.
Take dimethyl-doxorubicin: the “Sensitivity of DHMC compared to non-DHMC” value in experiment [6] was “increased sensitivity”.
